# Laboratory results published in patent publication US10028955B2, “FGFR inhibitor for use in the treatment of hypophosphatemic disorders” (Novartis AG, priority 2012, dated 2018).
# “Also recorded” adds a separate entry of the source.
# Experiments:
# Type in all cases: in vivo, mouse
# Hyp mice [1] = assay: Long-term (8 weeks, 3 qw) treatment of Hyp mice: bone radiography, micro-CT, histology/histomorphometry; conditions: 50 mg/kg 3 qw for 56 days
# Procedure: Radiographs of femur and tibia were taken ex vivo using a high-resolution radiography system (Faxitron MX-20). μCT measurements were performed ex vivo using a Scanco vivaCT 40 system (voxel size 6 μm; high resolution). For cancellous and cortical bone analyses a fixed threshold of 200 was used to determine the mineralized bone fraction from 50 slices. A Gaussian filter was applied to remove noise (σ=0.7; support=1).
# As shown on FIG. 7 long-term FGFR inhibition enhances growth of long bones in Hyp mice. Taken together, these above results illustrate the beneficial effect of pharmacological FGFR inhibition in the context of aberrant FGF23 signaling and indicate a potential alleviation of the bone formation deficiency of Hyp mice. […] On FIG. 7.: Radiographs of femur (FIG. 7A) and tibia (FIG. 7B) from wild-type or Hyp mice treated with the FGFR inhibitor BGJ398 (50 mg/kg) or vehicle 3 qw for 56 days. Quantification of femoral (FIG. 7C) and tibial (FIG. 7D) length. Data are shown as average with SEM (n≥6). Data were compared by unpaired Student's t test; * p<0.05; ** p<0.01; *** p<0.001; n. s.: not significant.
# Long-term FGFR inhibition improves cortex integrity in femoral bone of Hyp mice. To determine the effect of FGFR inhibitor treatment on bone structure in more detail, we performed microcomputed tomography (CT) analyses of the femoral cortex (sub growth plate area) from wild-type or Hyp mice treated with the FGFR inhibitor BGJ398 (50 mg/kg) or vehicle 3 qw for 56 days (FIG. 8A). Further relative cortical bone volume was quantified (FIG. 8B) and average cortex thickness determined (FIG. 8C).
# Long-term treatment with BGJ398 restores growth plate organization Hyp mice. we also found an ameliorative effect of BGJ398-treatment on growth plate organization in Hyp mice in tibial histological sections (FIG. 9A). […] Mineralized tissue is indicated by white arrows, unmineralized osteoid is visualized by dark grey (indicated by black arrows). Growth plate structure is shown by light grey staining in the central part of the sections (FIG. 9B). Osteoid surface/bone surface and osteoid width (FIG. 9C) determined by histomorphometry in the tibial epiphysis of wild-type or Hyp mice treated with BGJ398 (50 mg/kg) or vehicle 3 qw for 56 days. Data are shown as average with SEM (n≥6). Data were compared by unpaired Student's t test; * p<0.05; ** p<0.01; *** p<0.001. In vehicle-treated Hyp mice the columnar organization and directional growth of chondrocytes was disturbed in contrast to the highly ordered structure in wild-type mice. In addition, mineralization was impaired in control Hyp mice, as indicated by the abundance of unmineralized osteoid.
# FGF23 = FGF23 bone mRNA and serum levels after single oral dose in wild-type and Hyp mice; conditions: single oral dose 50 mg/kg, 7 h post-dosing
# Procedure: Kidneys were sampled, total RNA was isolated. For RNA isolation from mouse tibial and femoral bones, epiphyses were cut off and bone marrow was removed by centrifugation at 4° C. Tissue was homogenized using a Precellyis 24 bead homogenizer and RNA was extracted with TRIzol reagent. RNA was purified subsequently by chloroform extraction, isopropanol precipitation and RNeasy Mini kit. For kidney RNA, approximately 60 mg of tissue was homogenized in 1.5 ml RTL buffer (Qiagen) with a rotor-stator homogenizer and RNA was purified with the RNeasy Mini kit. Random hexamer primed cDNA was synthesized with 0.5-2 μg RNA and MultiScribe MuLV reverse transcriptase.
# Gene expression was analyzed by quantitative real-time PCR (qPCR). TaqMan Probe-Based Gene Expression assays were used for expression analysis of mouse Cyp27b1 (Mm01165919), Cyp24a1 (Mm00487244) and Gapdh (4352339E). Sequences of primers and FAM/TAMRA-labeled probes (Microsynth) for the detection of mouse Fgf23 were 5′-[…] (forward), 5′-[…] (reverse) and 5′-[…] (probe). Quantitative real-time PCR was performed in an iQ5 Real-Time PCR Detection System using a qPCR core kit for probe assay and an equivalent of 40 or 80 ng RNA of each sample. The data were normalized to Gapdh expression.
# (§1) Serum was separated from whole blood using clot activator centrifugation tubes. 100 μl of serum were used for determination of phosphate and calcium levels using the VetScan diagnostic profiling system. Serum concentrations of 1,25(OH)2D3 were determined using a radio receptor assay kit. FGF23 serum levels were analyzed by an ELISA detecting intact FGF23 (Kainos).
# Besides the alleviation of the mineral ion deficiency in the two mouse models for FGF23-related hypophosphatemic rickets, we also noticed a repressive effect of FGFR inhibitor treatment on FGF23 levels in BGJ398-treated Hyp mice. Mice received a single oral dose of the FGFR inhibitor BGJ398 (50 mg/kg) or vehicle and were studied 7 h post-administration. FGF23 bone mRNA (FIG. 3A) and serum (FIG. 3B) levels in wild-type and Hyp mice treated with BGJ398 were determined. […]
# [2] = system: renal FGF23 target genes Cyp27b1 and Cyp24a1; assay: Renal FGF23 target gene expression (qPCR) after single oral dose in wild-type and Hyp mice; conditions: both wild-type and Hyp mice, single oral dose 50 mg/kg, 7 h
# Source text: (§2) FGFR inhibitor treatment induces 1,25(OH)2D3 biosynthesis and alleviates hypocalcemia and hypophosphatemia in Hyp mice. Wild-type C57BL/6 and Hyp (B6.Cg-PhexHyp/J) mice were obtained from The Jackson Laboratory. Dmp1-null mice were generated by Feng et al. (J. Dent. Res. 2003; 82:776-780.). All mice were kept in cages under standard laboratory conditions. Mice were fed on a standard rodent diet with water ad libitum.
# Wild-type or Hyp mice received a single oral dose of the FGFR inhibitor BGJ398 in its free base form (50 mg/kg) or vehicle and were studied 7 h after administration of the compound. BGJ398 or vehicle only (PEG-300/Glucose 5%, 2:1 mix) was administered by oral gavage. Mice were used at 5-7 weeks of age in the case of single dose administrations. […] Concentrations of BGJ398 in kidney at 7 h was also determined. […]
# Gene expression was analyzed by quantitative real-time PCR (qPCR). […] Quantitative real-time PCR was performed in an iQ5 Real-Time PCR Detection System using a qPCR core kit for probe assay and an equivalent of 40 or 80 ng RNA of each sample. […]
# FGF23 exerts its hypophosphatemic functions in part by transcriptional regulation of the 1,25(OH)2D3-metabolizing enzymes CYP27B1 and CYP24A1 in the kidney. We therefore monitored renal Cyp27b1 and Cyp24a1 expression upon single dose treatment with BGJ398 in Hyp mice and wild-type littermates.
# Hyp mice [3] = assay: Long-term (8 weeks, 3 qw) treatment of Hyp mice: body weight, tail length, serum parameters; conditions: 50 mg/kg 3 qw for 56 days
# Procedure: as §1
# Long-term FGFR inhibition enhances body weight and tail length development and restores mineral ion homeostasis in Hyp mice. A long-term treatment studies was performed to monitor a potential amelioration of the rickets-like bone phenotypes of the Hyp mouse model. Treatments were performed over a course of 8 weeks. Owing to the persistence of elevated calcium and phosphate levels—extending beyond the clearance of BGJ398 from the kidney (FIG. 4)—mice were treated three times weekly (3 qw) with BGJ398 (50 mg/kg body weight) or vehicle for 56 days and analyzed similarly as explained above. […] Total body weight (FIG. 5B) and tail length gain (FIG. 5D) over the course of the treatment are depicted in FIG. 5 as well. Calcium (FIG. 5E) and phosphate (FIG. 5F) levels at the end of the 8 week treatment were determined from serum 24 h after the last administration and are shown in FIG. 5. Data are shown as average with SEM (n≥6). Data were compared by unpaired Student's t test; * p<0.05; ** p<0.01; *** p<0.001; n. s.: not significant.
# Wild-type or Hyp mice were treated again with the FGFR inhibitor BGJ398 (50 mg/kg) or vehicle 3 qw for 56 days and FGF23 (FIG. 6A), parathyroid hormone (PTH) (FIG. 6B) and 1,25(OH)2D3 (FIG. 6C) levels were determined from serum at 24 h after the last dosing. PTH values were determined by separating the serum from whole blood using clot activator centrifugation tubes (Sarstedt). 20 μl of serum were used for determination PTH levels using a mouse PTH ELISA (Immutopics). Data were compared by unpaired Student's t test; * p<0.05; ** p<0.01; *** p<0.001; n. s.: not significant.
# Dmp1-null mice = assay: Serum calcium and phosphate after single oral dose in Dmp1-null mice; conditions: single oral dose 50 mg/kg, 24 h post-administration
# Source text: as §2
# For analysis of calcium and phosphate levels mice received a single oral dose of the FGFR inhibitor BGJ398 (50 mg/kg) or vehicle and were studied 24 h post-administration. Phosphate and calcium levels were determined from serum. As for Hyp mice, pharmacological FGFR inhibition led to increased serum calcium and phosphate levels in Dmp1-null mice (FIGS. 2C and D, respectively). Data in FIG. 2 are shown as average with SEM (n≥6). Data were compared by unpaired Student's t test; * p<0.05; ** p<0.01; *** p<0.001; n. s.: not significant.
# Hyp mice [4] = assay: Serum 1,25(OH)2D3, calcium and phosphate after single oral dose in wild-type and Hyp mice
# Source text: as §2
# Wild-type or Hyp mice received a single oral dose of the FGFR inhibitor BGJ398 in its free base form (50 mg/kg) or vehicle and were studied 7 h after administration of the compound. BGJ398 or vehicle only (PEG-300/Glucose 5%, 2:1 mix) was administered by oral gavage. Mice were used at 5-7 weeks of age in the case of single dose administrations. Mice were anesthetized by isoflurane inhalation and blood was collected from the caval vein. Mice were sacrificed by exsanguination and kidney and tibial and femoral bones were obtained. Concentrations of BGJ398 in kidney at 7 h was also determined.
# as §1
# At 24 h post-dosing, single dose treatment with BGJ398 induced elevated serum calcium and phosphate levels in both wild-type and Hyp mice, thus alleviating the severe hypocalcemia and hypophosphatemia observed in control Hyp mice. […] Data in FIGS. 1 A and B is shown as relative levels to the wild-type control group (relative expression of 100) and are given as average with standard errors of the mean (SEM) (n≥6).
# Similarly to example 1, wild-type or Hyp mice received a single oral dose of the FGFR inhibitor BGJ398 or vehicle and were studied […] after administration of the compound. Calcium (FIG. 4A) and phosphate (FIG. 4B) levels were determined from serum. Data are shown as average with SEM (n≥3). Data were compared by unpaired Student's t test; * p<0.05; ** p<0.01; *** p<0.001; n. s.: not significant. (C) BGJ398 concentrations in kidney at 7 h and 24 h post-administration. Values are given as average with SEM (n≥5).
# [5] = Hyp mice, 24 h after last administration
# [6] = Hyp mice, 24 h after last dosing
# [7] = Hyp mice, single oral dose 50 mg/kg, 24 h post-dosing
# [8] = both wild-type and Hyp mice, single oral dose 50 mg/kg, 24 h post-dosing, 50 mg/kg
# [9] = wild-type or Hyp mice, single oral dose, 48 h after administration
structure (smiles),measurement,setting,value
"CCN1CCN(c2ccc(Nc3cc(N(C)C(=O)Nc4c(Cl)c(OC)cc(OC)c4Cl)ncn3)cc2)CC1 [BGJ398, 3-(2,6-Dichloro-3,5-dimethoxy-phenyl)-1-{6-[4-(4-ethyl-piperazin-1-yl)-phenylamino]-pyrimid-4-yl}-1-methyl-urea]",femoral cortex integrity (micro-CT),Hyp mice [1],appeared intact
same,mineralization in the epiphyseal bone area adjacent to the growth plate,Hyp mice [1],enhanced mineralization
same,primary spongiosa in the metaphyseal sub-growth plate area,Hyp mice [1],formation of primary spongiosa
same,widening of femoral and tibial growth plate areas,Hyp mice [1],partially alleviate
same,"growth plate organization (tibial sections, Goldner staining)",Hyp mice [1]; 50 mg/kg,striking re-organization of the growth plate area
same,femur length (radiography),Hyp mice [1]; vs vehicle Hyp,significant elongation
same,tibia length (radiography),Hyp mice [1]; vs vehicle Hyp,significant elongation
same,osteoid width,"Hyp mice [1]; epiphyseal, metaphyseal and cortical bone compartments",strong reduction
same,relative cortical bone volume,"Hyp mice [1]; femoral cortex, 50 mg/kg",increases from pathological values to indistinguishable with normal values; also recorded: indistinguishable from wild-type mice
same,average cortex thickness,"Hyp mice [1]; femoral cortex, vs vehicle Hyp, 50 mg/kg",significantly increased compared to vehicle-treated Hyp mice
same,Osteoid surface/bone surface (OS/BS ratio),Hyp mice [1]; histomorphometry,attenuation of the increased OS/BS ratio
same,columnar stacks of chondrocytes,Hyp mice [1]; tibial sections,re-formation
same,height of the proliferative zone,Hyp mice [1]; tibial sections,increased height
same,reduction of serum FGF23 levels,FGF23; Hyp mice,approximately 50%
same,FGF23 expression in bone (mRNA),FGF23; both Hyp and wild-type mice,almost abolished
same,serum FGF23 levels,FGF23; wild-type mice,undetectable
same,renal Cyp24a1 expression,[2],almost complete loss of Cyp24a1 expression
same,renal Cyp27b1 expression,[2],increased Cyp27b1 levels
same,serum calcium levels,Hyp mice [3]; [5],complete normalization
same,serum phosphate levels,Hyp mice [3]; [5],complete normalization
same,FGF23 serum concentrations,Hyp mice [3]; [6],further increase
same,PTH levels (serum),Hyp mice [3]; [6],normalization
same,tail length development,"Hyp mice [3]; Hyp mice, vs control Hyp",much stronger increase in tail length compared to control Hyp mice
same,body weight development,"Hyp mice [3]; Hyp mice, vs vehicle Hyp",stronger increase in body weight compared to the vehicle control group
same,tail length gain,"Hyp mice [3]; Hyp mice, vs vehicle wild-type",significantly higher compared to vehicle-treated wild-type littermates
same,"1,25(OH)2D3 serum levels","Hyp mice [3]; wild-type or Hyp mice, 24 h after last dosing",not significantly different among the treatment groups
same,serum calcium levels,Dmp1-null mice,increased
same,serum phosphate levels,Dmp1-null mice,increased
same,serum calcium levels compared to vehicle-treated wild-type mice,Hyp mice [4]; [7],indistinguishable from vehicle-treated wild-type mice
same,serum phosphate concentrations compared to wild-type mice,Hyp mice [4]; [7],still significantly lower compared to serum levels of wild-type mice
same,"1,25(OH)2D3 serum levels","Hyp mice [4]; both wild-type and Hyp mice, single oral dose 50 mg/kg, 7 h post-dosing",strong increase
same,serum calcium levels,Hyp mice [4]; [8],increased; also recorded: elevated
same,serum phosphate levels,Hyp mice [4]; [8],increased; also recorded: elevated
same,calcium serum levels,Hyp mice [4]; [9],persistent increase
same,phosphate serum levels,Hyp mice [4]; [9],persistent increase
